Measurements: US20060069132A1, “Azolecarboxamide herbicides” (priority 2004, published 2006)

Tests used:
[1] = system: barnyardgrass; experiment: Test B pre-/postemergence herbicide test; type: in vivo, Echinochloa crus-galli
In short: (§1)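 Test chemicals in a non-phytotoxic solvent mixture with surfactant were applied preemergence to seeded species and postemergence to plants 2-18 cm tall (1- to 4-leaf stage); rice and barnyardgrass were also tested in a flooded paddy at the 2-leaf stage. Visual rating versus controls after 13-15 days in greenhouse, scale 0 (no effect) to 100 (complete control).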

[2] = system: Surinam grass; experiment: Test B pre-/postemergence herbicide test; type: in vivo, Urochloa decumbens
In short: (§2)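 Pre: seeds sown, then sprayed. Post: 1–4-leaf plants (2–18 cm) sprayed at the same time. Paddy: flooded, treated at 2-leaf stage. Formulation: non-phytotoxic solvent with surfactant. Greenhouse 13–15 days; visual 0–100 score relative to controls.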

[3] = system: cocklebur; experiment: Test B pre-/postemergence herbicide test; type: in vivo, Xanthium strumarium
In short: as §1

[4] = system: corn; experiment: Test B pre-/postemergence herbicide test; type: in vivo, Zea mays
In short: as §2

[5] = system: large crabgrass; experiment: Test B pre-/postemergence herbicide test; type: in vivo, Digitaria sanguinalis
In short: as §2

[6] = system: giant foxtail; experiment: Test B pre-/postemergence herbicide test; type: in vivo, Setaria faberi
In short: as §2

[7] = system: lambsquarters; experiment: Test B pre-/postemergence herbicide test; type: in vivo, Chenopodium album
In short: as §2

[8] = system: morningglory; experiment: Test B pre-/postemergence herbicide test; type: in vivo, Ipomoea coccinea
In short: as §1

[9] = system: pigweed; experiment: Test B pre-/postemergence herbicide test; type: in vivo, Amaranthus retroflexus
In short: as §2

[10] = system: velvetleaf; experiment: Test B pre-/postemergence herbicide test; type: in vivo, Abutilon theophrasti
In short: as §2

[11] = system: blackgrass; experiment: Test B postemergence herbicide test; type: in vivo, Alopecurus myosuroides
In short: (§3)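 Paddy species grown to the 2-leaf stage under flooding; blackgrass sprayed postemergence at 2–18 cm (1- to 4-leaf stage). Plants kept in a greenhouse for 13 to 15 days, then visually rated against controls on 0 (no effect) to 100 (complete control).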

[12] = system: wheat; experiment: Test B postemergence herbicide test; type: in vivo, Triticum aestivum; set-up: key to Wheat plant response rating: 0 = no effect, 100 = complete control
In short: (§4)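 Each value is a visual 0–100 response rating taken against controls 13 to 15 days after treatment in the greenhouse. Plants received formulated chemical postemergence at the 1- to 4-leaf stage or, in flooded paddy, at the 2-leaf stage.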

[13] = system: wild oat; experiment: Test B postemergence herbicide test; type: in vivo, Avena fatua
In short: as §4

[14] = system: rice; experiment: Test B flooded paddy test; type: in vivo, Oryza sativa; conditions: 1000 g ai/ha, scale 0 to 100 (0 no effect, 100 complete control)
In short: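 Plants grow to 1- to 4-leaf stage (2–18 cm) for postemergence spraying, or to 2-leaf stage for the paddy test. Formulated compound is applied. Greenhouse holding lasts 13–15 days. Response is scored visually relative to controls, 0 no effect to 100 complete control; a dash means no result.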

[15] = system: small flower umbrella sedge; experiment: Test B flooded paddy test; type: in vivo, Cyperus difformis; conditions: 1000 g ai/ha, scale 0 to 100 (0 no effect, 100 complete control)
In short: as §3

[16] = system: ducksalad; experiment: Test B flooded paddy test; type: in vivo, Heteranthera limosa; conditions: 1000 g ai/ha, scale 0 to 100 (0 no effect, 100 complete control)
In short: as §3

[17] = system: barnyardgrass; experiment: Test B flooded paddy test; type: in vivo, Echinochloa crus-galli; conditions: 1000 g ai/ha, scale 0 to 100 (0 no effect, 100 complete control)
In short: as §3

[18] = Postemergence, 125 g ai/ha, scale 0 (no effect) to 100 (complete control)
[19] = Postemergence, 500 g ai/ha, visual rating after 13 to 15 days, scale 0 (no effect) to 100 (complete control)
[20] = Preemergence, 500 g ai/ha, scale 0 to 100
[21] = preemergence, 125 g ai/ha, 0 to 100 scale, 0 is no effect, 100 is complete control
[22] = 125 g ai/ha, 0 is no effect, 100 is complete control, preemergence
[23] = 125 g ai/ha, visual rating, scale 0 (no effect) to 100 (complete control), postemergence
[24] = postemergence, 500 g ai/ha, scale 0 to 100, 0 is no effect, 100 is complete control
[25] = Postemergence, 500 g ai/ha, scale 0 (no effect) to 100 (complete control)
[26] = Postemergence, 250 g ai/ha, scale 0 (no effect) to 100 (complete control)
[27] = postemergence, 62 g ai/ha, scale 0 to 100
[28] = 250 g ai/ha, scale 0 to 100, 0 no effect, 100 complete control, preemergence

Structure (SMILES): C=Cn1nc(C(C)(C)C)cc1C(=O)Nc1cccc(C(=O)NCC(F)(F)F)c1 [Compound 37]
- Barnyardgrass plant response rating [1, 18]: 20
- Plant response rating, Barnyardgrass [1, 19]: 20
- Barnyardgrass plant response rating [1, 20]: 60
- Plant response rating, Surinam Grass [2, 19]: 20
- Surinam Grass plant response rating [2, 20]: 40
- Plant response rating, Surinam Grass [2, 21]: 10
- Cocklebur plant response rating [3, 18]: 60
- Plant response rating, Cocklebur [3, 19]: 80
- Cocklebur plant response rating [3, 20]: 0
- Corn plant response rating [4, 20]: 10
- Crabgrass, Large plant response rating [5, 18]: 10
- Plant response rating, Crabgrass, Large [5, 19]: 20
- Crabgrass, Large plant response rating [5, 20]: 90
- Foxtail, Giant plant response rating [6, 18]: 20
- Plant response rating, Foxtail, Giant [6, 19]: 20
- Foxtail, Giant plant response rating [6, 20]: 60
- Plant response rating, Foxtail, Giant [6, 21]: 20
- Lambsquarters plant response rating [7, 18]: 80
- Plant response rating, Lambsquarters [7, 19]: 90
- Lambsquarters plant response rating [7, 20]: 100
- Plant response rating, Lambsquarters [7, 21]: 10
- Morningglory plant response rating [8, 20]: 0
- Plant response rating, Morningglory [8, 21]: 0
- Plant response rating, Pigweed [9, 19]: 90
- Pigweed plant response rating [9, 20]: 100
- Plant response rating, Pigweed [9, 21]: 80
- Plant response rating, Velvetleaf [10, 19]: 40
- Velvetleaf plant response rating [10, 20]: 20
- Plant response rating, Velvetleaf [10, 21]: 20
- Blackgrass plant response rating [11, 18]: 10
- Plant response rating, Blackgrass [11, 19]: 10
- Plant response rating, Wheat [12, 19]: 20
- Oat, Wild plant response rating [13, 18]: 10
- Plant response rating, Oat, Wild [13, 19]: 20
- Rice plant response rating ([14]; visual rating, 13 to 15 days): 50
- Sedge, Umbrella plant response rating ([15]; visual rating, 13 to 15 days): 90
- Ducksalad plant response rating ([16]; visual rating, 13 to 15 days): 60
- Barnyardgrass plant response rating ([17]; visual rating, 13 to 15 days): 30

Structure (SMILES): CCOC(=O)c1ccc(F)c(NC(=O)c2nn(C(C)(C)CC)nc2CC)c1 [Compound 373]
- Plant response rating (0 to 100 scale), Barnyardgrass [1, 22]: 0
- Barnyardgrass plant response rating [1, 23]: 10
- Barnyardgrass plant response rating [1, 24]: 20
- Plant response rating (0 to 100 scale), Surinam Grass [2, 22]: 0
- Surinam Grass plant response rating [2, 23]: 10
- Surinam Grass plant response rating [2, 25]: 20
- Plant response rating (0 to 100 scale), Cocklebur [3, 22]: 0
- Cocklebur plant response rating [3, 23]: 10
- Cocklebur plant response rating [3, 24]: 30
- Plant response rating (0 to 100 scale), Corn [4, 22]: 0
- Corn plant response rating [4, 23]: 0
- Corn plant response rating [4, 24]: 20
- Plant response rating (0 to 100 scale), Crabgrass, Large [5, 22]: 0
- Crabgrass, Large plant response rating [5, 23]: 10
- Crabgrass, Large plant response rating [5, 24]: 10
- Plant response rating (0 to 100 scale), Foxtail, Giant [6, 22]: 0
- Foxtail, Giant plant response rating [6, 23]: 20
- Foxtail, Giant plant response rating [6, 24]: 30
- Plant response rating (0 to 100 scale), Lambsquarters [7, 22]: 0
- Lambsquarters plant response rating [7, 23]: 20
- Lambsquarters plant response rating [7, 25]: 30
- Plant response rating (0 to 100 scale), Morningglory [8, 22]: 0
- Morningglory plant response rating [8, 23]: 20
- Morningglory plant response rating [8, 25]: 20
- Plant response rating (0 to 100 scale), Pigweed [9, 22]: 0
- Pigweed plant response rating [9, 23]: 50
- Pigweed plant response rating [9, 25]: 70
- Plant response rating (0 to 100 scale), Velvetleaf [10, 22]: 0
- Velvetleaf plant response rating [10, 23]: 20
- Velvetleaf plant response rating [10, 25]: 30
- Blackgrass plant response rating [11, 23]: 0
- Blackgrass plant response rating [11, 24]: 10
- Wheat plant response rating [12, 23]: 0
- Wheat plant response rating ([12]; 500 g ai/ha, scale 0 to 100, 0 no effect, 100 complete control, preemergence): 0
- Wheat plant response rating [12, 25]: 10
- Oat, Wild plant response rating [13, 23]: 10
- Oat, Wild plant response rating [13, 25]: 30
- Rice plant response rating [14]: 0
- Sedge, Umbrella plant response rating [15]: 20
- Ducksalad plant response rating [16]: 0
- Barnyardgrass plant response rating [17]: 20

Structure (SMILES): CCOC(=O)c1ccc(F)c(NC(=O)c2cc(C(C)C)nn2CC)c1 [Compound 73]
- Barnyardgrass plant response rating [1, 26]: 10
- Barnyardgrass plant response rating [1, 27]: 0
- Surinam Grass plant response rating [2, 26]: 10
- Surinam Grass plant response rating [2, 27]: 10
- Cocklebur plant response rating [3, 26]: 20
- Cocklebur plant response rating [3, 27]: 20
- Corn plant response rating [4, 26]: 30
- Corn plant response rating [4, 27]: 0
- Crabgrass, Large plant response rating [5, 26]: 10
- Crabgrass, Large plant response rating [5, 27]: 0
- Foxtail, Giant plant response rating [6, 26]: 30
- Foxtail, Giant plant response rating [6, 27]: 10
- Lambsquarters plant response rating [7, 26]: 10
- Lambsquarters plant response rating [7, 27]: 0
- Morningglory plant response rating [8, 26]: 10
- Morningglory plant response rating [8, 27]: 10
- Pigweed plant response rating [9, 26]: 20
- Pigweed plant response rating [9, 27]: 10
- Velvetleaf plant response rating [10, 26]: 50
- Velvetleaf plant response rating [10, 27]: 30
- Blackgrass plant response rating [11, 26]: 30
- Blackgrass plant response rating [11, 27]: 30
- Wheat plant response rating [12, 28]: 20
- Wheat plant response rating [12, 26]: 30
- Wheat plant response rating [12, 27]: 20
- Oat, Wild plant response rating [13, 26]: 40
- Oat, Wild plant response rating [13, 27]: 20
- Rice plant response rating ([14]; visual rating, 13 to 15 days): 50
- Sedge, Umbrella plant response rating ([15]; visual rating, 13 to 15 days): 80
- Ducksalad plant response rating ([16]; visual rating, 13 to 15 days): 10
- Barnyardgrass plant response rating ([17]; visual rating, 13 to 15 days): 30

Structure (SMILES): CCOC(=O)c1ccc(F)c(NC(=O)c2cc(C3CC3)nn2CC)c1 [Compound 74]
- Barnyardgrass plant response rating [1, 26]: 0
- Barnyardgrass plant response rating [1, 27]: 0
- Surinam Grass plant response rating [2, 26]: 10
- Surinam Grass plant response rating [2, 27]: 0
- Cocklebur plant response rating [3, 26]: 0
- Cocklebur plant response rating [3, 27]: 0
- Corn plant response rating [4, 26]: 0
- Corn plant response rating [4, 27]: 0
- Crabgrass, Large plant response rating [5, 26]: 10
- Crabgrass, Large plant response rating [5, 27]: 0
- Foxtail, Giant plant response rating [6, 26]: 10
- Foxtail, Giant plant response rating [6, 27]: 10
- Lambsquarters plant response rating [7, 26]: 10
- Lambsquarters plant response rating [7, 27]: 0
- Morningglory plant response rating [8, 26]: 10
- Morningglory plant response rating [8, 27]: 0
- Pigweed plant response rating [9, 26]: 20
- Pigweed plant response rating [9, 27]: 20
- Velvetleaf plant response rating [10, 26]: 30
- Velvetleaf plant response rating [10, 27]: 0
- Blackgrass plant response rating [11, 26]: 50
- Blackgrass plant response rating [11, 27]: 30
- Wheat plant response rating [12, 28]: 0
- Wheat plant response rating [12, 26]: 20
- Wheat plant response rating [12, 27]: 20
- Oat, Wild plant response rating [13, 26]: 40
- Oat, Wild plant response rating [13, 27]: 30
- Rice plant response rating ([14]; visual rating, 13 to 15 days): 0
- Sedge, Umbrella plant response rating ([15]; visual rating, 13 to 15 days): 70
- Ducksalad plant response rating ([16]; visual rating, 13 to 15 days): 0
- Barnyardgrass plant response rating ([17]; visual rating, 13 to 15 days): 0
